Source: patent US12076394B2, “Cytosolic delivery of peptides using protein transduction domain mimics” (University of Massachusetts, priority 2020, dated 2024)
Read-outs that look alike come from different tables or passages of the source. Each block holds one molecule with its values, some of them ahead of it. Where no end group is shown, it is not given here. FAM = Fluorescein Amidites label

Key:
whole blood [1] = experiment: Inflammatory cytokine panel (cytometric bead array) after co-delivery of SIINFEKL and CpG into whole blood; conditions: 24 hours after 60-minute treatment
Protocol: (§1) A multi-analyte inflammatory cytokine panel was used to understand the immune response when CpG was added to the complexes. GpC, a nonfunctional analogue of CpG, was included as a negative control to preclude the role of nonspecific TLR9 activation during incubation. At 24 hours, following the 60-minute treatment with the non-covalent polymer-[sequence]-CpG complexes, supernatants from whole blood were tested the inflammatory cytokines: IL-1β, IFN-α, IFN-γ, TNF-α, MCP-1, IL-6, IL-8, IL-10, IL-12p70, IL-17A, IL-18, IL-23, and IL-33.
(§2) Whole human blood was obtained from healthy volunteers under signed consent in Roche Vacutainers containing hirudin. In all cases, blood was used within 10 minutes of the tapping from the donor. The blood was distributed into Eppendorf tubes containing preassembled polymer preparations in RPMI 1640 with no supplements and incubated up to 1 hour at 37° C. on rotation (60 RPM). In general, 400 μL of blood was combined with 100 μL of polymer complex prepared in RPMI 1640 for a final volume of 500 μL.
(§3) After one hour of incubation with treatment as reported under cell preparation and culture, cells were pelleted at 400 g for 2 minutes and supernatant was removed. […] Cytokine production was detected using the human inflammation cytometric bead array Legendplex™ from BioLegend® (740118).

whole blood [2] = test system: whole blood
Protocol: as §1, §2, §3

[3] = test system: bone marrow derived dendritic cells; experiment: Delivery into bone marrow derived dendritic cells, flow cytometry; type: cell-based, mouse; conditions: 1 μM antigen, free or with PTDM at 1:10, 4 hours
Protocol: To test SIINFEKL delivery and presentation for T cell activation, bone marrow derived dendritic cells were differentiated from B56 mouse bone marrow for 6 days in the presence of 20 ng/mL mouse GM-CSF. After 6 days, cells were harvested and treated with 1 μM fluorescently labeled SIINFEKL or OVA both free and in complex with PTDM molar ratio of 1:10 for 4 hours.
Immature dendritic cells were differentiated from murine bone marrow according to established protocols. (Dewitte, et al. J. Control. Release 2014, 195, 138-146.) RBCs were lysed using BioLegend® lysis buffer and cells were plated at a density of 2×10^5 cells/mL in complete RPMI (listed under cell lines) with the addition of 20 ng/mL recombinant mouse GM-CSF. Cells were cultured for 6 days with the addition of 10 mL fresh media and cytokines on day 3. Non-adherent and loosely adherent cells were harvested on day 6 and cells were pelleted, counted, and plated at a density of 2×10^6 cells/mL.
THP-1 monocytes, immature dendritic cells, and bone marrow derived dendritic cells were analyzed using a BD LSR Fortessa 20X flow cytometer with five lasers and 18 channels. […] Only cells negative for 7-AAD were assessed for either uptake or presentation of markers. Multi-color flow cytometric analysis spectral overlap was corrected by appropriate compensation and analyzed using FlowJo 10.2 (v3.05470) by Tree Star, Ashland, OR, USA.

whole blood [4] = experiment: Delivery of FAM labeled SIINFEKL into whole blood (time and concentration survey), flow cytometry; type: cell-based, human; conditions: molar ratio 1:10; 15, 30, 45 or 60 minutes; free peptide 60 minutes
Protocol: The specificity of the polymer-antigen complex uptake by monocytes was tested in whole blood. FAM (Fluorescein Amidites) labeled SIIFNEKL was delivered into whole blood using Me-Ph10-b-dG5 at a molar ratio of 1:10, for 15, 30, 45, or 60 minutes to investigate the kinetics of uptake. MFI and uptake in monocytes were not statistically different regardless of the incubation time. Additionally, complex uptake was compared with free SIINFEKL-FAM allowed to incubate with whole blood for 60 minutes.
FAM labeled SIINFEKL was delivered into whole blood using Me-Ph10-b-dG5 at a molar ratio of 1:10 at increasing peptide concentrations (0.25, 0.5, 1, and 2 μM).
After incubation, cells were pelleted at 200 g for 5 minutes and the supernatant was removed. Red blood cells were lysed in using BD Pharm lysis buffer and subsequently washed with 1% FBS in PBS twice before staining with antibodies. Unspecific binding was blocked for 10 minutes using human or mouse IgG respectively. Antibody surface staining was performed using Human CD14-APC, CD4O-PE, CD80-AF488, CD86-BV711, CD209-APC, HLA-DR-APC-Cy7, or mouse CD11c-AF488, CD86-AF647, HLA-DR, H-2K^b-PE as indicated by manufacturer (BD® or BioLegend®). […]

inflammatory cytokine response, in words (whole blood [1]): no increase in inflammatory response
Molecule: CC[C@H](C)[C@H](NC(=O)[C@@H](NC(=O)[C@@H](N)CO)[C@@H](C)CC)C(=O)N[C@@H](CC(N)=O)C(=O)N[C@@H](Cc1ccccc1)C(=O)N[C@@H](CCC(=O)O)C(=O)N[C@@H](CCCCN)C(=O)N[C@@H](CC(C)C)C(=O)O [SIINFEKL]

Molecule: Me-Ph10-b-dG5 [PTDM]
inflammatory cytokine response, in words (whole blood [2]): did not induce the production of inflammatory cytokines

Molecule: OVA: ovalbumin protein, fluorescently labeled, free antigen
uptake of fluorescently labeled SIINFEKL or OVA [3]: significantly less uptake

Molecule: SIINFEKL-FAM: FAM (Fluorescein Amidites) labeled SIINFEKL, free peptide (SIINFEKL-{FAM})
uptake of FAM labeled SIINFEKL by leukocytes, time survey (whole blood [4]): not readily taken up
